Reference: the NIST ThermoML archive (doi:10.1016/j.jct.2015.08.014)
± gives the expanded uncertainty stated by the source.

Assay: xn = mol fraction of the nth substance listed
Details: 100 kPa, Liquid; for electrical conductivity: Alternating current cell with electrodes; for mass density: Vibrating tube method; for viscosity: Capillary tube (Ostwald / Ubbelohde) method

CCCC[N+]1(C)CCCC1.N#CN=C=[N-] [1-butyl-1-methylpyrrolidinium dicyanamide] + O=C1CCCO1
Details	electrical conductivity [S/m]
273.15 K, Frequency=0.00892857 MHz, x1 = 0.9013	0.563 ± 0.006
273.15 K, Frequency=0.00892857 MHz, x1 = 1	0.523 ± 0.005
273.15 K, Frequency=0.00961538 MHz, x1 = 0.0463	0.978 ± 0.016
273.15 K, Frequency=0.00961538 MHz, x1 = 0.0987	1.43 ± 0.017
273.15 K, Frequency=0.00961538 MHz, x1 = 0.1449	1.57 ± 0.016
273.15 K, Frequency=0.00961538 MHz, x1 = 0.1859	1.635 ± 0.016
273.15 K, Frequency=0.00961538 MHz, x1 = 0.2493	1.517 ± 0.015
273.15 K, Frequency=0.00961538 MHz, x1 = 0.3029	1.42 ± 0.015
273.15 K, Frequency=0.00961538 MHz, x1 = 0.3845	1.25 ± 0.013
273.15 K, Frequency=0.00961538 MHz, x1 = 0.4985	1.03 ± 0.011
273.15 K, Frequency=0.00961538 MHz, x1 = 0.6954	0.742 ± 0.008
273.15 K, Frequency=0.00961538 MHz, x1 = 0.9013	0.563 ± 0.006
273.15 K, Frequency=0.00961538 MHz, x1 = 1	0.523 ± 0.005
273.15 K, Frequency=0.01 MHz, x1 = 0.0463	0.978 ± 0.016
273.15 K, Frequency=0.01 MHz, x1 = 0.0987	1.43 ± 0.017
273.15 K, Frequency=0.01 MHz, x1 = 0.1449	1.57 ± 0.016
273.15 K, Frequency=0.01 MHz, x1 = 0.1859	1.635 ± 0.016
273.15 K, Frequency=0.01 MHz, x1 = 0.2493	1.517 ± 0.015
273.15 K, Frequency=0.01 MHz, x1 = 0.3029	1.42 ± 0.015
273.15 K, Frequency=0.01 MHz, x1 = 0.3845	1.25 ± 0.013
273.15 K, Frequency=0.01 MHz, x1 = 0.4985	1.03 ± 0.011
273.15 K, Frequency=0.01 MHz, x1 = 0.6954	0.742 ± 0.008
273.15 K, Frequency=0.01 MHz, x1 = 0.9013	0.563 ± 0.006
273.15 K, Frequency=0.01 MHz, x1 = 1	0.523 ± 0.005
283.15 K, Frequency=0.0005 MHz, x1 = 0.0463	1.16 ± 0.02
283.15 K, Frequency=0.0005 MHz, x1 = 0.0987	1.73 ± 0.021
283.15 K, Frequency=0.0005 MHz, x1 = 0.1449	1.92 ± 0.02
283.15 K, Frequency=0.0005 MHz, x1 = 0.1859	2.018 ± 0.02
283.15 K, Frequency=0.0005 MHz, x1 = 0.2493	1.921 ± 0.019
283.15 K, Frequency=0.0005 MHz, x1 = 0.3029	1.84 ± 0.019
283.15 K, Frequency=0.0005 MHz, x1 = 0.3845	1.65 ± 0.017
283.15 K, Frequency=0.0005 MHz, x1 = 0.4985	1.407 ± 0.014
283.15 K, Frequency=0.0005 MHz, x1 = 0.6954	1.07 ± 0.01
283.15 K, Frequency=0.0005 MHz, x1 = 0.9013	0.849 ± 0.009
283.15 K, Frequency=0.0005 MHz, x1 = 1	0.786 ± 0.008
283.15 K, Frequency=0.001 MHz, x1 = 0.0463	1.16 ± 0.02
283.15 K, Frequency=0.001 MHz, x1 = 0.0987	1.73 ± 0.021
283.15 K, Frequency=0.001 MHz, x1 = 0.1449	1.92 ± 0.02
283.15 K, Frequency=0.001 MHz, x1 = 0.1859	2.027 ± 0.02
283.15 K, Frequency=0.001 MHz, x1 = 0.2493	1.923 ± 0.019
283.15 K, Frequency=0.001 MHz, x1 = 0.3029	1.84 ± 0.019
283.15 K, Frequency=0.001 MHz, x1 = 0.3845	1.65 ± 0.017
283.15 K, Frequency=0.001 MHz, x1 = 0.4985	1.407 ± 0.014
283.15 K, Frequency=0.001 MHz, x1 = 0.6954	1.07 ± 0.01
283.15 K, Frequency=0.001 MHz, x1 = 0.9013	0.849 ± 0.009
283.15 K, Frequency=0.001 MHz, x1 = 1	0.786 ± 0.008
283.15 K, Frequency=0.0015 MHz, x1 = 0.0463	1.17 ± 0.02
283.15 K, Frequency=0.0015 MHz, x1 = 0.0987	1.73 ± 0.021
283.15 K, Frequency=0.0015 MHz, x1 = 0.1449	1.92 ± 0.02
283.15 K, Frequency=0.0015 MHz, x1 = 0.1859	2.027 ± 0.02
283.15 K, Frequency=0.0015 MHz, x1 = 0.2493	1.924 ± 0.019
283.15 K, Frequency=0.0015 MHz, x1 = 0.3029	1.84 ± 0.019
283.15 K, Frequency=0.0015 MHz, x1 = 0.3845	1.66 ± 0.017
283.15 K, Frequency=0.0015 MHz, x1 = 0.4985	1.407 ± 0.014
283.15 K, Frequency=0.0015 MHz, x1 = 0.6954	1.07 ± 0.01
283.15 K, Frequency=0.0015 MHz, x1 = 0.9013	0.849 ± 0.009
283.15 K, Frequency=0.0015 MHz, x1 = 1	0.786 ± 0.008
283.15 K, Frequency=0.002 MHz, x1 = 0.0463	1.17 ± 0.02
283.15 K, Frequency=0.002 MHz, x1 = 0.0987	1.73 ± 0.021
283.15 K, Frequency=0.002 MHz, x1 = 0.1449	1.92 ± 0.02
283.15 K, Frequency=0.002 MHz, x1 = 0.1859	2.027 ± 0.02
283.15 K, Frequency=0.002 MHz, x1 = 0.2493	1.925 ± 0.019
283.15 K, Frequency=0.002 MHz, x1 = 0.3029	1.84 ± 0.019
283.15 K, Frequency=0.002 MHz, x1 = 0.3845	1.66 ± 0.017
283.15 K, Frequency=0.002 MHz, x1 = 0.4985	1.407 ± 0.014
283.15 K, Frequency=0.002 MHz, x1 = 0.6954	1.07 ± 0.01
283.15 K, Frequency=0.002 MHz, x1 = 0.9013	0.849 ± 0.009
283.15 K, Frequency=0.002 MHz, x1 = 1	0.786 ± 0.008
283.15 K, Frequency=0.0025 MHz, x1 = 0.0463	1.17 ± 0.02
283.15 K, Frequency=0.0025 MHz, x1 = 0.0987	1.73 ± 0.021
283.15 K, Frequency=0.0025 MHz, x1 = 0.1449	1.93 ± 0.02
283.15 K, Frequency=0.0025 MHz, x1 = 0.1859	2.028 ± 0.02
283.15 K, Frequency=0.0025 MHz, x1 = 0.2493	1.925 ± 0.019
283.15 K, Frequency=0.0025 MHz, x1 = 0.3029	1.84 ± 0.019
283.15 K, Frequency=0.0025 MHz, x1 = 0.3845	1.66 ± 0.017
283.15 K, Frequency=0.0025 MHz, x1 = 0.4985	1.407 ± 0.014
283.15 K, Frequency=0.0025 MHz, x1 = 0.6954	1.07 ± 0.01
283.15 K, Frequency=0.0025 MHz, x1 = 0.9013	0.849 ± 0.009
283.15 K, Frequency=0.0025 MHz, x1 = 1	0.786 ± 0.008
283.15 K, Frequency=0.003 MHz, x1 = 0.0463	1.17 ± 0.02
283.15 K, Frequency=0.003 MHz, x1 = 0.0987	1.73 ± 0.021
283.15 K, Frequency=0.003 MHz, x1 = 0.1449	1.93 ± 0.02

Details	electrical conductivity, 283.15 K [S/m]	mass density, 273.15 K [kg/m3]	viscosity, 283.15 K [mPa·s]
x1 = 0.0463	1.17 ± 0.02	–	–
x1 = 0.0987	1.73 ± 0.021	1124.75 ± 9	3.75 ± 0.08
x1 = 0.1449	1.93 ± 0.02	–	–
x1 = 0.1859	2.028 ± 0.02	1107.12 ± 8.9	5.58 ± 0.13
x1 = 0.2493	1.926 ± 0.019	–	–
x1 = 0.3029	1.84 ± 0.019	1087.92 ± 8.7	8.99 ± 0.2
x1 = 0.3845	1.66 ± 0.017	–	–
x1 = 0.4985	1.407 ± 0.014	1063.96 ± 8.5	17.71 ± 0.39
x1 = 0.6954	1.07 ± 0.011	1046.52 ± 8.4	30.79 ± 0.69
x1 = 0.9013	0.849 ± 0.009	1032.97 ± 8.3	49.24 ± 1.1
x1 = 1	0.786 ± 0.008	1027.69 ± 8.3	59.6 ± 1.4
